Source: patent US20200164038A1, “MODIFIED NUCLEOSIDE, NUCLEOTIDE, AND NUCLEIC ACID COMPOSITIONS” (ModernaTX, Inc., priority 2011, published 2020)

What was measured:
[1] = test system: Human primary foreskin fibroblasts (BJ fibroblasts); assay: Innate immune response transcripts in BJ fibroblasts, single transfection (qPCR); assay type: cell-based; settings: 250 ng, 18 hours
Description: Control samples of poly I:C.

[2] = test system: IFN-alpha; assay: Chemical modification ranges, modified RNA transfected in PBMC, IFN-alpha ELISA; assay type: cell-based, human
Protocol: 960 ng of G-CSF mRNA modified with 5-methylcytosine (5mC) and pseudouridine (pseudoU) or unmodified G-CSF mRNA was transfected with 0.8 uL of Lipofectamine 2000 into peripheral blood mononuclear cells (PBMC) from three normal blood donors (D1, D2, D3). […] The supernatant was harvested and run by ELISA 22 hours after transfection to determine the protein expression. The expression of IFN-alpha and TNF-alpha may be a secondary effect from the transfection of the G-CSF mRNA.

[3] = test system: TNF-alpha; assay: Chemical modification ranges, modified RNA transfected in PBMC, TNF-alpha ELISA; assay type: cell-based, human
Protocol: (§1) The supernatant was harvested and run by ELISA 22 hours after transfection to determine the protein expression.

[4] = test system: peripheral blood mononuclear cells (PBMC); assay: In vitro PBMC study, percent modification: IFN-alpha and TNF-alpha by ELISA, PC ratio; assay type: cell-based, human
Protocol: as §1

[5] = Stability of modified RNA on storage (gel electrophoresis); assay type: physicochemical
Protocol: Stability experiments were conducted to obtain a better understanding of storage conditions to retain the integrity of modified RNA. […] 40° C. 37° C. 25° C. 4° C. or −20° C. After the mRNA had been stored for 0 hours, 2 hours, 6 hours, 24 hours, 48 hours, 5 days and 14 days, the mRNA was analyzed by gel electrophoresis using a Bio-Rad EXPERION™ system. The modified, unmodified and lipoplexed G-CSF mRNA was also stored in RNASTABLE® (Biomatrica, Inc. San Diego, Calif.) at 40° C. or water at −80° C. or 40° C. for 35 days before being analyzed by gel electrophoresis.
mRNA samples stored at 4° C. 25° C. and 37° C. were stored in 1×TE buffer or the formulation buffer (150 mM sodium chloride, 2 mM calcium chloride, 2 mM phosphate, 0.5 mM EDTA at a pH of 6.5). The mRNA stored at 4° C. was stable to at least 60 days in both the TE and formulation buffer. At 25° C. the mRNA in formulation buffer was stable out to 14 days and the TE buffer was stable out to at least 6 days. Storage of mRNA in the formulation buffer at 37° C. was stable to 6 days compared to the TE buffer which was stable only until 4 days.

[6] = Split dose study IM, serum human EPO, product per unit drug and dose splitting factor; assay type: in vivo, mice
Protocol: The dosing vehicle (F. buffer) consisted of 150 mM NaCl, 2 mM CaCl2, 2 mM Na^+-phosphate (1.4 mM monobasic sodium phosphate; 0.6 mM dibasic sodium phosphate), and 0.5 mM EDTA, pH 6.5. The pH was adjusted using sodium hydroxide and the final solution was filter sterilized.
Animals (n=5) were injected IM (intramuscular) for the single unit dose of 100 ug. For multi-dosing, two schedules were used, 3 doses of 100 ug and 6 doses of 100 ug. For the split dosing scheme, two schedules were used, 3 doses at 33.3 ug and 6 doses of 16.5 ug mmRNA. Control dosing involved use of buffer only at 6 doses. […] Blood and muscle tissue were evaluated 13 hrs post injection.
Human EPO protein was measured in mouse serum 13 h post I.M. single, multi- or split dosing of the EPO mmRNA in buffer. Seven groups of mice (n=5 mice per group) were treated and evaluated.
The splitting factor is defined as the product per unit drug divided by the single dose product per unit drug (PUD) For example for treatment group 2 the value 0.28 or product (EPO) per unit drug (mmRNA) is divided by the single dose product per unit drug of 0.14. The result is 2. Likewise, for treatment group 4, the value 1.1 or product (EPO) per unit drug (mmRNA) is divided by the single dose product per unit drug of 0.14. The result is 7.9. Consequently, the dose splitting factor (DSF) may be used as an indicator of the efficacy of a split dose regimen. For any single administration of a total daily dose, the DSF should be equal to 1. Therefore any DSF greater than this value in a split dose regimen is an indication of increased efficacy.

[7] = test system: HEK293 cells; assay: In vitro expression of VEGF modified mRNA (ELISA); assay type: cell-based
[8] = group 1: 1 × 100 ug, total dose 100 ug
[9] = group 2: 3 × 100 ug, total dose 300 ug
[10] = group 3: 3 × 33.3 ug, total dose 600 ug
[11] = group 4: 3 × 33.3 ug, total dose 100 ug
[12] = group 5: 6 × 16.5 ug, total dose 100 ug

poly I:C [P(I)P(C)]
AIM2 transcript level [1]: 0.100 fold-induction relative to HPRT
IFIT-1 transcript level [1]: 71.914 fold-induction relative to HPRT
IFNa transcript level [1]: 0.063 fold-induction relative to HPRT
IFNb transcript level [1]: 1.523 fold-induction relative to HPRT
IL6 transcript level [1]: 2.8 fold-induction relative to HPRT
OAS-1 transcript level [1]: 8.628 fold-induction relative to HPRT
PKR transcript level [1]: 10.326 fold-induction relative to HPRT
RIG-I transcript level [1]: 30.0 fold-induction relative to HPRT
TNFa transcript level [1]: 0.264 fold-induction relative to HPRT
IFN-alpha Expression ([2]; PBMC donor D1): 1498.1 pg/mL
IFN-alpha Expression ([2]; PBMC donor D2): 216.8 pg/mL
IFN-alpha Expression ([2]; PBMC donor D3): 238.8 pg/mL
TNF-alpha Expression ([3]; PBMC donor D1): 61.2 pg/mL
TNF-alpha Expression ([3]; PBMC donor D2): 4.4 pg/mL
TNF-alpha Expression ([3]; PBMC donor D3): 69.1 pg/mL
IFN-alpha Expression ([4]; donor D1, 22 hours): 130.8 pg/mL
TNF-alpha Expression ([4]; donor D1, 22 hours): 765.8 pg/mL
IFN-alpha Expression ([4]; donor D2, 22 hours): 297.1 pg/mL
TNF-alpha Expression ([4]; donor D2, 22 hours): 2362.7 pg/mL
IFN-alpha Expression ([4]; donor D3, 22 hours): 585.2 pg/mL
TNF-alpha Expression ([4]; donor D3, 22 hours): 420.4 pg/mL

B1: G-CSF unmodified: unmodified G-CSF mRNA SEQ ID NO 6, Cap1 (nucleic acid, listed as Homo sapiens)
chain: GGGAAAUAAGAGAGAAAAGAAGAGUAAGAAGAAAUAUAAGAGCCACCAUGGCCGGUCCCGCGACCCAAAGCCCCAUGAAACUUAUGGCCCUGCAGUUGCUGCUUUGGCACUCGGCCCUCUGGACAGUCCAAGAAGCGACUCCUCUCGGACCUGCCUCAUCGUUGCCGCAGUCAUUCCUUUUGAAGUGUCUGGAGCAGGUGCGAAAGAUUCAGGGCGAUGGAGCCGCACUCCAAGAGAAGCUCUGCGCGACAUACAAACUUUGCCAUCCCGAGGAGCUCGUACUGCUCGGGCACAGCUUGGGGAUUCCCUGGGCUCCUCUCUCGUCCUGUCCGUCGCAGGCUUUGCAGUUGGCAGGGUGCCUUUCCCAGCUCCACUCCGGUUUGUUCUUGUAUCAGGGACUGCUGCAAGCCCUUGAGGGAAUCUCGCCAGAAUUGGGCCCGACGCUGGACACGUUGCAGCUCGACGUGGCGGAUUUCGCAACAACCAUCUGGCAGCAGAUGGAGGAACUGGGGAUGGCACCCGCGCUGCAGCCCACGCAGGGGGCAAUGCCGGCCUUUGCGUCCGCGUUUCAGCGCAGGGCGGGUGGAGUCCUCGUAGCGAGCCACCUUCAAUCAUUUUUGGAAGUCUCGUACCGGGUGCUGAGACAUCUUGCGCAGCCGUGAAGCGCUGCCUUCUGCGGGGCUUGCCUUCUGGCCAUGCCCUUCUUCUCUCCCUUGCACCUGUACCUCUUGGUCUUUGAAUAAAGCCUGAGUAGGAAG
modifications: Cap1
stable out to ([5]; stored at 25° C.): 48 h
stable out to ([5]; stored at 37° C.): 6 h
stable out to ([5]; stored at 50° C.): 2 h

B2: Human EPO mmRNA (nucleic acid, listed as Homo sapiens)
sense: GGGAAAUAAGAGAGAAAAGAAGAGUAAGAAGAAAUAUAAGAGCCACCAUGGGAGUGCACGAGUGUCCCGCGUGGUUGUGGUUGCUGCUGUCGCUCUUGAGCCUCCCACUGGGACUGCCUGUGCUGGGGGCACCACCCAGAUUGAUCUGCGACUCACGGGUACUUGAGAGGUACCUUCUUGAAGCCAAAGAAGCCGAAAACAUCACAACCGGAUGCGCCGAGCACUGCUCCCUCAAUGAGAACAUUACUGUACCGGAUACAAAGGUCAAUUUCUAUGCAUGGAAGAGAAUGGAAGUAGGACAGCAGGCCGUCGAAGUGUGGCAGGGGCUCGCGCUUUUGUCGGAGGCGGUGUUGCGGGGUCAGGCCCUCCUCGUCAACUCAUCACAGCCGUGGGAGCCCCUCCAACUUCAUGUCGAUAAAGCGGUGUCGGGGCUCCGCAGCUUGACGACGUUGCUUCGGGCUCUGGGCGCACAAAAGGAGGCUAUUUCGCCGCCUGACGCGGCCUCCGCGGCACCCCUCCGAACGAUCACCGCGGACACGUUUAGGAAGCUUUUUAGAGUGUACAGCAAUUUCCUCCGCGGAAAGCUGAAAUUGUAUACUGGUGAAGCGUGUAGGACAGGGGAUCGCUGAUAAGCUGCCUUCUGCGGGGCUUGCCUUCUGGCCAUGCCCUUCUUCUCUCCCUUGCACCUGUACCUCUUGGUCUUUGAAUAAAGCCUGAGUAGGAAG
modifications: 5' Cap1, polyA tail ~160 nt
Dose Splitting Factor [6, 8]: 1
Polypeptide per unit drug [6, 8]: 0.14 pmol/µg
Dose Splitting Factor [6, 9]: 2
Polypeptide per unit drug [6, 9]: 0.28 pmol/µg
Dose Splitting Factor [6, 10]: 3.3
Polypeptide per unit drug [6, 10]: 0.46 pmol/µg
Dose Splitting Factor [6, 11]: 7.9
Polypeptide per unit drug [6, 11]: 1.1 pmol/µg
Dose Splitting Factor [6, 12]: 9.3
Polypeptide per unit drug [6, 12]: 1.3 pmol/µg

B3: VEGF-A: modified mRNA VEGF-A SEQ ID NO 19, Cap1, fully modified with 5-methylcytosine and pseudouridine, complexed with Lipofectamine2000 (nucleic acid, listed as Homo sapiens)
chain: GGGAAAUAAGAGAGAAAAGAAGAGUAAGAAGAAAUAUAAGAGCCACCAUGAACUUUCUCUUGUCAUGGGUGCACUGGAGCCUUGCGCUGCUGCUGUAUCUUCAUCACGCUAAGUGGAGCCAGGCCGCACCCAUGGCGGAGGGUGGCGGACAGAAUCACCACGAAGUAGUCAAAUUCAUGGACGUGUACCAGAGGUCGUAUUGCCAUCCGAUUGAAACUCUUGUGGAUAUCUUUCAAGAAUACCCCGAUGAAAUCGAGUACAUUUUCAAACCGUCGUGUGUCCCUCUCAUGAGGUGCGGGGGAUGCUGCAAUGAUGAAGGGUUGGAGUGUGUCCCCACGGAGGAGUCGAAUAUCACAAUGCAAAUCAUGCGCAUCAAACCACAUCAGGGUCAGCAUAUUGGAGAGAUGUCCUUUCUCCAGCACAACAAAUGUGAGUGUAGACCGAAGAAGGACCGAGCCCGACAGGAAAACCCAUGCGGACCGUGCUCCGAGCGGCGCAAACACUUGUUCGUACAAGACCCCCAGACAUGCAAGUGCUCAUGUAAGAAUACCGAUUCGCGGUGUAAGGCGAGACAGCUGGAAUUGAACGAGCGCACGUGUAGGUGCGACAAGCCUAGACGGUGAGCUGCCUUCUGCGGGGCUUGCCUUCUGGCCAUGCCCUUCUUCUCUCCCUUGCACCUGUACCUCUUGGUCUUUGAAUAAAGCCUGAGUAGGAAG
modifications: Cap1, polyA tail, 5mC/pseudoU, Lipofectamine2000 complex
Protein ([7]; 2 pg transfected): 0 pg/mL
Protein ([7]; 10 pg transfected): 0 pg/mL
Protein ([7]; 39 pg transfected): 0 pg/mL
Protein ([7]; 610 fg transfected): 0 pg/mL
